Among the data in PubChem BioAssay AID330 (DTP/NCI, 2004) are T/C values, retold here.

Where “and” joins values, the source holds several entries; their conditions need not be identical. Identical values can stand only once. Toxic doses and inconclusive results are not listed.

This assay has as its system P388 leukemia ip, CD2F1 mice, survival T/C. Description: NCI In Vivo Anticancer Drug Screen. Data for tumor model P388 Leukemia (intraperitoneal) in CD2F1 (CDF1) mice. To be noted: endpoint: median survival time, higher = longer survival. The method, boiled down: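 Mice carrying the transplanted tumor received test compound or vehicle. Survival was recorded in each group, and the value is the treated-group measurement divided by that of the vehicle-treated control group.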

The mark [1] stands for this setting: dose: 12.5 mg/kg/injection, schedule: Q01DX009 (ip), vehicle: distilled water + Tween-80.
Setting [2] is: dose: 25.0 mg/kg/injection, schedule: Q01DX009 (ip), vehicle: distilled water + Tween-80.
The mark [3] stands for this setting: dose: 50.0 mg/kg/injection, schedule: Q01DX009 (ip), vehicle: saline.
Setting [4] is: dose: 50.0 mg/kg/injection, schedule: Q01DX009 (ip), vehicle: saline with Tween-80.
Where [5] appears, read: dose: 100.0 mg/kg/injection, schedule: Q01DX009 (ip), vehicle: saline with Tween-80.
Where [6] appears, read: dose: 200.0 mg/kg/injection, schedule: Q01DX009 (ip), vehicle: saline with Tween-80.
Setting [7] is: dose: 50.0 mg/kg/injection, schedule: Q01DX005 (ip), vehicle: saline with Tween-80.
[8] abbreviates: dose: 100.0 mg/kg/injection, schedule: Q01DX005 (ip), vehicle: saline with Tween-80.
[9] abbreviates: dose: 200.0 mg/kg/injection, schedule: Q01DX005 (ip), vehicle: saline with Tween-80.
Setting [10] is: dose: 60.0 mg/kg/injection, schedule: Q01DX005 (ip), vehicle: saline with Tween-80.
Setting [11] is: dose: 120.0 mg/kg/injection, schedule: Q01DX005 (ip), vehicle: saline with Tween-80.
Where [12] appears, read: dose: 240.0 mg/kg/injection, schedule: Q01DX005 (ip), vehicle: saline with Tween-80.

Consider `COc1ccc(C2Oc3cc(O)c4c(=O)c5c(OC)cccc5oc4c3OC2CO)cc1O` (configuration not stated), for which the T/C reads like this: (dose: 6.25 mg/kg/injection, schedule: Q01DX009 (ip), vehicle: saline + alcohol) 111 % of control; (dose: 12.5 mg/kg/injection, schedule: Q01DX009 (ip), vehicle: saline + alcohol) 100 % of control; (dose: 25.0 mg/kg/injection, schedule: Q01DX009 (ip), vehicle: saline + alcohol) 100 % of control.

As for `O=C(Nc1ccc(C(=O)O)cc1)Nc1nccs1`, the T/C was 89 % of control under setting [1]; 118 % of control under setting [2]; 122 % of control (dose: 50.0 mg/kg/injection, schedule: Q01DX009 (ip), vehicle: distilled water + Tween-80); 150 % of control (dose: 100.0 mg/kg/injection, schedule: Q01DX009 (ip), vehicle: distilled water + Tween-80); 163 % of control (dose: 200.0 mg/kg/injection, schedule: Q01DX009 (ip), vehicle: distilled water + Tween-80).

For the compound `CCOCCOC(=O)c1nc2c(N)nc(-c3ccccc3)nc2nc1N`, the T/C (dose: 15.0 mg/kg/injection, schedule: Q01DX009 (ip), vehicle: saline with Tween-80) is 98 % of control; the T/C (dose: 30.0 mg/kg/injection, schedule: Q01DX009 (ip), vehicle: saline with Tween-80) was 98 % of control; the T/C (dose: 60.0 mg/kg/injection, schedule: Q01DX009 (ip), vehicle: saline with Tween-80) is 91 % of control.

In the case of `CSC(=S)N=Nc1c(O)[nH]c2ccccc12`, the T/C was 93 % of control under setting [3]; 96 % of control (dose: 100.0 mg/kg/injection, schedule: Q01DX009 (ip), vehicle: saline); 99 % of control (dose: 200.0 mg/kg/injection, schedule: Q01DX009 (ip), vehicle: saline).

`CCOC(=O)c1nn(C)c2oc(=O)ccc12`: the T/C is, setting by setting: (dose: 25.0 mg/kg/injection, schedule: Q01DX005 (ip), vehicle: Klucel (hydroxypropylcellulose) (HPC)) 106 % of control; (dose: 50.0 mg/kg/injection, schedule: Q01DX005 (ip), vehicle: Klucel (hydroxypropylcellulose) (HPC)) 108 % of control; (dose: 100.0 mg/kg/injection, schedule: Q01DX005 (ip), vehicle: Klucel (hydroxypropylcellulose) (HPC)) 104 % of control; (dose: 200.0 mg/kg/injection, schedule: Q01DX005 (ip), vehicle: Klucel (hydroxypropylcellulose) (HPC)) 104 % of control.

Regarding `CNC(=O)OCc1c(COC(=O)NC)c(-c2cc(F)ccc2F)n2c1CCC2`, the T/C is 151 % of control under setting [1]; 155 % of control and 156 % of control under setting [2].

Turning to `N#Cc1c(N)nc2c(c1N)CC(CCl)O2` (configuration not stated), the T/C is 94 % of control under setting [4], 96 % of control under setting [5] and 87 % of control under setting [6].

Turning to `Fc1ccc2[nH]c3ncccc3c2c1`, the T/C is 106 % of control under setting [7], 105 % of control under setting [8] and 100 % of control under setting [9].

Take `C/C(COc1ccc([N+](=O)[O-])cc1)=N/NS(=O)(=O)c1cc(Cl)c(Cl)cc1Cl`: the T/C was 101 % of control (dose: 12.5 mg/kg/injection, schedule: Q01DX009 (ip), vehicle: saline); 102 % of control (dose: 25.0 mg/kg/injection, schedule: Q01DX009 (ip), vehicle: saline); 99 % of control and 87 % of control under setting [3].

Regarding `COC1=CC2OC3OC(=O)CC3C2C(OCc2ccccc2)=C1` (configuration not stated), the T/C reads like this: under setting [10], 91 % of control; under setting [11], 88 % of control; under setting [12], 90 % of control.

Take `CN(C)c1ccc(/C=C2/CCC2=O)cc1`: the T/C (dose: 100.0 mg/kg/injection, schedule: Q04DX003 (ip), vehicle: Klucel (hydroxypropylcellulose) (HPC)) is 96 % of control; the T/C (dose: 200.0 mg/kg/injection, schedule: Q04DX003 (ip), vehicle: Klucel (hydroxypropylcellulose) (HPC)) is 97 % of control; the T/C (dose: 400.0 mg/kg/injection, schedule: Q04DX003 (ip), vehicle: Klucel (hydroxypropylcellulose) (HPC)) was 95 % of control.

As for `COc1ccc(Cc2cc3c(cc2OC(C)=O)OCO3)cc1`, the T/C runs as follows: under setting [7], 100 % of control; under setting [8], 100 % of control; under setting [9], 99 % of control.

As to `O=C1c2ccccc2CC1(Br)C(Br)c1ccccc1` (configuration not stated), the T/C was 109 % of control under setting [5]; 96 % of control (dose: 100.0 mg/kg/injection, schedule: Q04DX003 (ip), vehicle: saline with Tween-80); 118 % of control under setting [6]; 92 % of control (dose: 200.0 mg/kg/injection, schedule: Q04DX003 (ip), vehicle: saline with Tween-80); 109 % of control (dose: 400.0 mg/kg/injection, schedule: Q01DX009 (ip), vehicle: saline with Tween-80); 92 % of control (dose: 400.0 mg/kg/injection, schedule: Q04DX003 (ip), vehicle: saline with Tween-80).

`O=C(C1CCCCC1)C1CCCCC1CC1CCCCC1` (configuration not stated): the T/C runs as follows: under setting [7], 102 % of control; under setting [8], 107 % of control; under setting [9], 107 % of control.

Turning to `CC1CCOBO1` (configuration not stated), the T/C runs as follows: (dose: 100.0 mg/kg/injection, schedule: Q04DX002 (ip), vehicle: Klucel (hydroxypropylcellulose) (HPC)) 98 % of control; (dose: 200.0 mg/kg/injection, schedule: Q04DX002 (ip), vehicle: Klucel (hydroxypropylcellulose) (HPC)) 101 % of control; (dose: 400.0 mg/kg/injection, schedule: Q04DX002 (ip), vehicle: Klucel (hydroxypropylcellulose) (HPC)) 98 % of control.

As for `Cc1nc2ncnc(Cl)c2[nH]1`, the T/C is, setting by setting: (dose: 50.0 mg/kg/injection, schedule: Q01DX005 (ip), vehicle: saline) 99 % of control; (dose: 100.0 mg/kg/injection, schedule: Q01DX005 (ip), vehicle: saline) 105 % of control; (dose: 200.0 mg/kg/injection, schedule: Q01DX005 (ip), vehicle: saline) 96 % of control.

`CCCCc1ccc(C)c(O)c1`: the T/C was 110 % of control under setting [4] and 98 % of control under setting [5].

Consider `COc1cc2c(cc1OC)C(C)C1c3cc4c(cc3CCN1C2)OCO4` (configuration not stated), for which the T/C is 103 % of control and 100 % of control (dose: 50.0 mg/kg/injection, schedule: Q04DX003 (ip), vehicle: distilled water + Tween-80); 97 % of control and 103 % of control (dose: 100.0 mg/kg/injection, schedule: Q04DX003 (ip), vehicle: distilled water + Tween-80); 99 % of control and 103 % of control (dose: 200.0 mg/kg/injection, schedule: Q04DX003 (ip), vehicle: distilled water + Tween-80); 103 % of control (dose: 400.0 mg/kg/injection, schedule: Q04DX003 (ip), vehicle: distilled water + Tween-80).

On to `[O-][n+]1c(CCl)nc2ccccc2c1-c1ccccc1F`, for which the T/C (dose: 12.5 mg/kg/injection, schedule: Q01DX009 (ip), vehicle: saline with Tween-80) was 103 % of control; the T/C (dose: 25.0 mg/kg/injection, schedule: Q01DX009 (ip), vehicle: saline with Tween-80) was 103 % of control; the T/C under setting [4] was 103 % of control.

`CCCCSc1ccc(N=[N+]([O-])c2ccc(SCCCC)nc2SCCCC)c(SCCCC)n1`: the T/C is 94 % of control under setting [4], 90 % of control under setting [5] and 88 % of control under setting [6].

For `CC(CO)NC(=O)C1C=C2c3cccc4[nH]cc(c34)CC2N(C)C1` (configuration not stated), the T/C runs as follows: (dose: 9.0 mg/kg/injection, schedule: Q01DX009 (ip), vehicle: saline) 97 % of control; (dose: 18.0 mg/kg/injection, schedule: Q01DX009 (ip), vehicle: saline) 91 % of control; (dose: 44.5 mg/kg/injection, schedule: Q01DX009 (ip), vehicle: saline) 97 % of control; (dose: 89.0 mg/kg/injection, schedule: Q01DX009 (ip), vehicle: saline) 97 % of control; (dose: 178.0 mg/kg/injection, schedule: Q01DX009 (ip), vehicle: saline) 106 % of control.

On to `S=c1c(-c2ccccc2)cnc2sccn12`, for which the T/C under setting [10] is 100 % of control, the T/C under setting [11] was 96 % of control and the T/C under setting [12] is 98 % of control.

Turning to `O=C(NCCCl)Nc1[nH]c(=O)ncc1I`, the T/C by setting is: (dose: 1.88 mg/kg/injection, schedule: Q01DX005 (ip), vehicle: saline with Tween-80) 101 % of control; (dose: 3.75 mg/kg/injection, schedule: Q01DX005 (ip), vehicle: saline with Tween-80) 101 % of control; (dose: 7.5 mg/kg/injection, schedule: Q01DX005 (ip), vehicle: saline with Tween-80) 100 % of control; under setting [10], 95 % of control.
